# Measurements from patent publication US20250282768A1 (Janssen Pharmaceutica NV, priority 2022, published 2025).
# System: p-IKKa levels in L363 (NIK translocated multiple myeloma) cells
# Experiment: Assay 2: Effect of compounds on p-IKKa levels in L363 (NIK translocated multiple myeloma) cells
# Format: cell-based
# Details: Homo sapiens, L-363, 6 h, read-out: Assay 2 IC50 (nM), p-IKKa (Ser 176/180) in BAFF stimulated L363 cells with MG132, 6 h; average if tested more than once
# How it was run: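 L363 cells incubated overnight ± 250 ng/ml BAFF, then 6 h at 37 °C with compound (0.3% DMSO) ± 10 μM MG132. Lysates assayed for p-IKKa (Ser176/180) by AlphaLISA SureFire. IC50 from sigmoidal fit of % inhibition normalized to BAFF/MG132-stimulated and unstimulated controls.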
row,SMILES,IC50
1,"CN(C)CCOc1ccc(Nc2nccc(-c3cccc(-c4cc([C@]5(O)CCN(C)C5=O)on4)n3)n2)nn1 [Example 130, (R)-3-(3-(6-(2-((6-(2-(Dimethylamino)ethoxy)pyridazin-3-yl)amino)pyrimidin-4-yl)pyridin-2-yl)isoxazol-5-yl)-3-hydroxy-1-methylpyrrolidin-2-one]",50 to 500 nM
2,"Cc1nccc(Nc2nccc(-c3cccc(-c4cc([C@]5(O)CCN(C)C5=O)on4)n3)n2)c1C [Example 128, (R)-3-(3-(6-(2-((2,3-Dimethylpyridin-4-yl)amino)pyrimidin-4-yl)pyridin-2-yl)isoxazol-5-yl)-3-hydroxy-1-methylpyrrolidin-2-one]",< 50 nM
3,"CCn1ncnc1Nc1nccc(-c2cccc(-c3cc([C@]4(O)CCN(C)C4=O)on3)n2)n1 [Example 276, (R)-3-(3-(6-(2-((1-Ethyl-1H-1,2,4-triazol-5-yl)amino)pyrimidin-4-yl)pyridin-2-yl)isoxazol-5-yl)-3-hydroxy-1-methylpyrrolidin-2-one]",> 500 nM
4,"CN1CC[C@@](O)(c2cc(-c3cccc(-c4ccnc(NC5(c6cnn(C)c6)CC5)n4)n3)no2)C1=O [Example 45, (R)-3-Hydroxy-1-methyl-3-(3-(6-(2-((1-(1-methyl-1H-pyrazol-4-yl)cyclopropyl)amino)pyrimidin-4-yl)pyridin-2-yl)isoxazol-5-yl)pyrrolidin-2-one]",> 500 nM
5,"CN1CC[C@@](O)(c2cc(-c3cccc(-c4ccnc(NC[C@@H]5CCO5)n4)n3)no2)C1=O [Example 360, (R)-3-Hydroxy-1-methyl-3-(3-(6-(2-((((S)-oxetan-2-yl)methyl)amino)pyrimidin-4-yl)pyridin-2-yl)isoxazol-5-yl)pyrrolidin-2-one]",> 500 nM
6,"CN1CC[C@@](O)(c2cc(-c3cccc(-c4ccnc(Nc5ccn(C)n5)n4)c3F)no2)C1=O [Example 426, (R)-3-(3-(2-Fluoro-3-(2-((1-methyl-1H-pyrazol-3-yl)amino)pyrimidin-4-yl)phenyl)isoxazol-5-yl)-3-hydroxy-1-methylpyrrolidin-2-one]",> 500 nM
7,"CN1CC[C@@](O)(c2cc(-c3cccc(-c4ccnc(Nc5cnn6cccnc56)n4)c3)no2)C1=O [Example 18, (R)-3-Hydroxy-1-methyl-3-(3-(3-(2-(pyrazolo[1,5-a]pyrimidin-3-ylamino)pyrimidin-4-yl)phenyl)isoxazol-5-yl)pyrrolidin-2-one]",> 500 nM
8,"CC(C)[C@H](Nc1nccc(-c2cccc(-c3cc([C@]4(O)CCN(C)C4=O)on3)n2)n1)c1cnn(C)c1 (single isomer, unassigned) [Example 163]",50 to 500 nM
9,"CN1CC[C@@](O)(c2cc(-c3cccc(-c4ccnc(N[C@H]5CCCOC5)n4)n3)no2)C1=O [Example 454, (R)-3-Hydroxy-1-methyl-3-(3-(6-(2-(((S)-tetrahydro-2H-pyran-3-yl)amino)pyrimidin-4-yl)pyridin-2-yl)isoxaozl-5-yl)pyrrolidin-2-one]",50 to 500 nM
10,"CN1CC[C@@](O)(c2cc(-c3cccc(-c4ccnc(Nc5cnn6c5OCCC6)n4)c3)no2)C1=O [Example 15, (R)-3-(3-(3-(2-((6,7-Dihydro-5H-pyrazolo[5,1-b][1,3]oxazin-3-yl)amino)pyrimidin-4-yl)phenyl)isoxazol-5-yl)-3-hydroxy-1-methylpyrrolidin-2-one]",> 500 nM
11,"CN1CC[C@@](O)(c2cc(-c3cccc(-c4ccnc(Nc5cncc(F)c5)n4)n3)no2)C1=O [Example 86, (R)-3-(3-(6-(2-((5-Fluoropyridin-3-yl)amino)pyrimidin-4-yl)pyridin-2-yl)isoxazol-5-yl)-3-hydroxy-1-methylpyrrolidin-2-one]",< 50 nM
12,"CN1CC[C@](O)(c2nnc(-c3cccc(-c4ccnc(Nc5cnn(C)c5Cl)n4)n3)s2)C1=O [Example 103, (R)-3-(5-(6-(2-((5-chloro-1-methyl-1H-pyrazol-4-yl)amino)pyrimidin-4-yl)pyridin-2-yl)-1,3,4-thiadiazol-2-yl)-3-hydroxy-1-methylpyrrolidin-2-one]",> 500 nM
13,"COCC1CC(Nc2nccc(-c3cccc(-c4cc([C@]5(O)CCN(C)C5=O)on4)n3)n2)CO1 (stereo partly drawn) [Example 366, (3R)-3-Hydroxy-3-(3-(6-(2-((5-(methoxymethyl)tetrahydrofuran-3-yl)amino)pyrimidin-4-yl)pyridin-2-yl)isoxazol-5-yl)-1-methylpyrrolidin-2-one]",50 to 500 nM
14,"Cc1ccc(O)c(Nc2nccc(-c3cccc(-c4cc([C@]5(O)CCN(C)C5=O)on4)n3)n2)n1 [Example 268, (R)-3-Hydroxy-3-(3-(6-(2-((3-hydroxy-6-methylpyridin-2-yl)amino)pyrimidin-4-yl)pyridin-2-yl)isoxazol-5-yl)-1-methylpyrrolidin-2-one]",> 500 nM
15,"Cc1nnc(C(C)Nc2nccc(-c3cccc(-c4cc([C@]5(O)CCN(C)C5=O)on4)n3)n2)o1 (stereo partly drawn) [Example 385, (3R)-3-Hydroxy-1-methyl-3-(3-(6-(2-((1-(5-methyl-1,3,4-oxadiazol-2-yl)ethyl)amino)pyrimidin-4-yl)pyridin-2-yl)isoxazol-5-yl)pyrrolidin-2-one]",50 to 500 nM
16,"CN1CC[C@@](O)(c2ncc(-c3cccc(-c4ccnc(Nc5ccn(C)n5)n4)n3)s2)C1=O (single isomer, unassigned) [Example 82]",> 500 nM
17,"CCc1c(Nc2nccc(-c3cccc(-c4cc([C@]5(O)CCN(C)C5=O)on4)n3)n2)cnn1C [Example 226, (R)-3-(3-(6-(2-((5-Ethyl-1-methyl-1H-pyrazol-4-yl)amino)pyrimidin-4-yl)pyridin-2-yl)isoxazol-5-yl)-3-hydroxy-1-methylpyrrolidin-2-one]",< 50 nM
18,"CN1CC[C@@](O)(c2cc(-c3cccc(-c4ccnc(Nc5ncc(CO)cn5)n4)n3)no2)C1=O [Example 316, (R)-3-Hydroxy-3-(3-(6-(2-((5-(hydroxymethyl)pyrimidin-2-yl)amino)pyrimidin-4-yl)pyridin-2-yl)isoxazol-5-yl)-1-methylpyrrolidin-2-one]",> 500 nM
19,"Cc1nn(CCN(C)C)c(C)c1Nc1nccc(-c2cccc(-c3cc([C@]4(O)CCN(C)C4=O)on3)n2)n1 [Example 278, (R)-3-(3-(6-(2-((1-(2-(Dimethylamino)ethyl)-3,5-dimethyl-1H-pyrazol-4-yl)amino)pyrimidin-4-yl)pyridin-2-yl)isoxazol-5-yl)-3-hydroxy-1-methylpyrrolidin-2-one]",> 500 nM
20,"[2H]c1cc(-c2cccc(-n3cc([C@]4(O)CCN(C)C4=O)nn3)n2)nc(Nc2ccn(C)n2)n1 [Example 193, (R)-3-Hydroxy-1-methyl-3-(1-(6-(2-((1-methyl-1H-pyrazol-3-yl)amino)pyrimidin-4-yl-6-d)pyridin-2-yl)-1H-1,2,3-triazol-4-yl)pyrrolidin-2-one]",< 50 nM
21,"CN1CC[C@@](O)(c2cc(-c3cccc(-c4ccnc(Nc5nnc(C(F)F)o5)n4)n3)no2)C1=O [Example 324, (R)-3-(3-(6-(2-((5-(Difluoromethyl)-1,3,4-oxadiazol-2-yl)amino)pyrimidin-4-yl)pyridin-2-yl)isoxazol-5-yl)-3-hydroxy-1-methylpyrrolidin-2-one]",> 500 nM
22,"CN1CC[C@@](O)(c2cc(-c3cccc(-c4ccnc(Nc5cn(C)nc5OCC(F)(F)F)n4)n3)no2)C1=O [Example 59, (R)-3-Hydroxy-1-methyl-3-(3-(6-(2-((1-methyl-3-(2,2,2-trifluoroethoxy)-1H-pyrazol-4-yl)amino)pyrimidin-4-yl)pyridin-2-yl)isoxazol-5-yl)pyrrolidin-2-one]",< 50 nM
23,"COc1nn(CC(C)(C)O)cc1Nc1nccc(-c2cccc(-c3cc([C@]4(O)CCN(C)C4=O)on3)n2)n1 [Example 49, (R)-3-Hydroxy-3-(3-(6-(2-((1-(2-hydroxy-2-methylpropyl)-3-methoxy-1H-pyrazol-4-yl)amino)pyrimidin-4-yl)pyridin-2-yl)isoxazol-5-yl)-1-methylpyrrolidin-2-one]",< 50 nM
24,"CC(Nc1nccc(-c2cccc(-c3cc([C@]4(O)CCN(C)C4=O)on3)n2)n1)c1cc[nH]n1 (stereo partly drawn) [Example 147, (3R)-3-(3-(6-(2-((1-(1H-Pyrazol-3-yl)ethyl)amino)pyrimidin-4-yl)pyridin-2-yl)isoxazol-5-yl)-3-hydroxy-1-methylpyrrolidin-2-one]",50 to 500 nM
25,"CN1CC[C@](O)(c2cnc(-c3cccc(-c4ccnc(Nc5ccn(C)n5)n4)n3)s2)C1=O (single isomer, unassigned) [Example 79]",> 500 nM
26,"CN1CC[C@@](O)(c2cc(-c3cccc(-c4ccnc(Nc5cnn([C@@H]6CCN(C7COC7)C6)c5)n4)n3)no2)C1=O (single isomer, unassigned) [Example 141]",< 50 nM
27,"CN1CC[C@@](O)(c2cc(-c3cccc(-c4ccnc(NC[C@H]5CCO5)n4)n3)no2)C1=O [Example 358, (R)-3-Hydroxy-1-methyl-3-(3-(6-(2-((((R)-oxetan-2-yl)methyl)amino)pyrimidin-4-yl)pyridin-2-yl)isoxazol-5-yl)pyrrolidin-2-one]",> 500 nM
28,"CN1CC[C@@](O)(c2cc(-c3cccc(-c4ccnc(NCC(=O)N5CC(F)(F)C5)n4)n3)no2)C1=O [Example 185, (R)-3-(3-(6-(2-((2-(3,3-Difluoroazetidin-1-yl)-2-oxoethyl)amino)pyrimidin-4-yl)pyridin-2-yl)isoxazol-5-yl)-3-hydroxy-1-methylpyrrolidin-2-one]",> 500 nM
29,"COc1nn(CC(F)F)cc1Nc1nccc(-c2cccc(-c3cc([C@@]4(O)CCN(C)C4=O)n[nH]3)n2)n1 (single isomer, unassigned) [Example 189, (*R)-3-(5-(6-(2-((1-(2,2-Difluoroethyl)-3-methoxy-1H-pyrazol-4-yl)amino)pyrimidin-4-yl)pyridin-2-yl)-1H-pyrazol-3-yl)-3-hydroxy-1-methylpyrrolidin-2-one]",< 50 nM
30,"CN1CC[C@@](O)(c2cn(-c3cccc(-c4ccnc(Nc5cnn(C)c5Cl)n4)n3)nn2)C1=O [Example 327, (R)-3-(1-(6-(2-((5-Chloro-1-methyl-1H-pyrazol-4-yl)amino)pyrimidin-4-yl)pyridin-2-yl)-1H-1,2,3-triazol-4-yl)-3-hydroxy-1-methylpyrrolidin-2-one]",< 50 nM
